Data reported in BindingDB's records for doi:10.1021/jm00107a015 (Institute of Cancer Research, 1991).

Experiment: Growth inhibition of thymidylate synthase(TS) in L1210 cells

| IC50 | SMILES |
| --- | --- |
| 260 nM | CCN(Cc1ccc2nc[nH]c(=S)c2c1)c1ccc(C(=O)NC(CCC(=O)O)C(=O)O)cc1 (stereo not drawn) |
| 117000 nM | CCN(Cc1ccc2ncnc(SC)c2c1)c1ccc(C(=O)NC(CCC(=O)O)C(=O)O)cc1 (stereo not drawn) |
| 110 nM | C#CCN(Cc1ccc2nc[nH]c(=S)c2c1)c1ccc(C(=O)NC(CCC(=O)O)C(=O)O)cc1 (stereo not drawn) |
